“And” between values parts separate entries of the source, which are not always exact repeats. Identical values can stand only once. Toxic doses and inconclusive results are not listed.

This test concerns BDF1 mice, P388 leukemia ip, median survival T/C. In words: NCI In Vivo Anticancer Drug Screen. Data for tumor model P388 Leukemia (intraperitoneal) in B6D2F1 (BDF1) mice. Conditions: endpoint: median survival time, higher = longer survival. The gist of the method: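 Reported as T/C, where T is the survival measurement in dosed animals and C the same measurement in vehicle controls.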

The mark [1] stands for this setting: dose: 50.0 mg/kg/injection, schedule: Q01DX009 (ip), vehicle: saline with Tween-80.
The mark [2] stands for this setting: dose: 100.0 mg/kg/injection, schedule: Q01DX009 (ip), vehicle: saline with Tween-80.
[3] abbreviates: dose: 200.0 mg/kg/injection, schedule: Q01DX009 (ip), vehicle: saline with Tween-80.
[4] abbreviates: dose: 100.0 mg/kg/injection, schedule: Q04DX003 (ip), vehicle: Klucel (hydroxypropylcellulose) (HPC).
Setting [5] is: dose: 200.0 mg/kg/injection, schedule: Q04DX003 (ip), vehicle: Klucel (hydroxypropylcellulose) (HPC).
Where [6] appears, read: dose: 400.0 mg/kg/injection, schedule: Q04DX003 (ip), vehicle: Klucel (hydroxypropylcellulose) (HPC).
Where [7] appears, read: dose: 100.0 mg/kg/injection, schedule: Q04DX003 (ip), vehicle: saline.
The mark [8] stands for this setting: dose: 200.0 mg/kg/injection, schedule: Q04DX003 (ip), vehicle: saline.
[9] abbreviates: dose: 200.0 mg/kg/injection, schedule: Q04DX003 (ip), vehicle: saline with Tween-80.
[10] abbreviates: dose: 100.0 mg/kg/injection, schedule: Q01DX009 (ip), vehicle: saline.
The mark [11] stands for this setting: dose: 200.0 mg/kg/injection, schedule: Q01DX009 (ip), vehicle: saline.
[12] abbreviates: dose: 400.0 mg/kg/injection, schedule: Q04DX003 (ip), vehicle: saline.

As for `CCCCCC[N+]1(C)CC2C3C=CC(C3)C2C1` (stereo unspecified), the T/C (dose: 75.0 mg/kg/injection, schedule: Q01DX009 (ip), vehicle: saline) was 90 % of control.
In the case of `Clc1ccc(C2(Cn3ccnc3)OCC(COc3ccc(-c4ccccc4)cc3)O2)c(Cl)c1` (stereo unspecified), the T/C is, setting by setting: under setting [1], 108 % of control; under setting [2], 101 % of control; under setting [3], 99 % of control.
As to `NC(=O)/C=C/c1c[nH]c2nccnc12`, the T/C (dose: 3.12 mg/kg/injection, schedule: Q01DX009 (ip), vehicle: water) is 113 % of control; the T/C (dose: 3.12 mg/kg/injection, schedule: Q04DX003 (ip), vehicle: water) is 106 % of control; the T/C (dose: 6.25 mg/kg/injection, schedule: Q01DX009 (ip), vehicle: water) was 108 % of control; the T/C (dose: 6.25 mg/kg/injection, schedule: Q04DX003 (ip), vehicle: water) was 105 % of control and 112 % of control; the T/C (dose: 12.5 mg/kg/injection, schedule: Q01DX009 (ip), vehicle: water) was 121 % of control; the T/C (dose: 12.5 mg/kg/injection, schedule: Q04DX003 (ip), vehicle: water) was 104 % of control and 106 % of control. Besides, the T/C (dose: 25.0 mg/kg/injection, schedule: Q04DX003 (ip), vehicle: water) is 114 % of control.
`CNC1(c2ccccc2)C(=O)CC2CCC1C2` (stereo unspecified): the T/C reads like this: (dose: 25.0 mg/kg/injection, schedule: Q01DX001 (ip), vehicle: Klucel (hydroxypropylcellulose) (HPC)) 105 % of control; (dose: 50.0 mg/kg/injection, schedule: Q01DX001 (ip), vehicle: Klucel (hydroxypropylcellulose) (HPC)) 105 % of control; (dose: 100.0 mg/kg/injection, schedule: Q01DX001 (ip), vehicle: Klucel (hydroxypropylcellulose) (HPC)) 100 % of control.
Consider `CCCCCCC#CC(=O)O`, for which the T/C by setting is: under setting [1], 100 % of control; (dose: 50.0 mg/kg/injection, schedule: Q01DX009 (sc), vehicle: olive oil, sesame oil, peanut oil) 96 % of control; under setting [2], 98 % of control; (dose: 100.0 mg/kg/injection, schedule: Q01DX009 (sc), vehicle: olive oil, sesame oil, peanut oil) 96 % of control; (dose: 100.0 mg/kg/injection, schedule: Q04DX003 (sc), vehicle: olive oil, sesame oil, peanut oil) 100 % of control; under setting [3], 116 % of control. In addition, the T/C by setting is: (dose: 200.0 mg/kg/injection, schedule: Q01DX009 (sc), vehicle: olive oil, sesame oil, peanut oil) 92 % of control; (dose: 200.0 mg/kg/injection, schedule: Q04DX003 (sc), vehicle: olive oil, sesame oil, peanut oil) 96 % of control.
As for `CO/C(O)=c1/nc2c(n(C)c1=N)=CCCC2`, the T/C was 100 % of control under setting [1] and 104 % of control under setting [2].
Consider `O=S(=O)(C=C(N1CCCCC1)N1CCCCC1)Cc1ccccc1`, for which the T/C runs as follows: (dose: 8.75 mg/kg/injection, schedule: Q01DX009 (ip), vehicle: saline) 105 % of control; (dose: 17.5 mg/kg/injection, schedule: Q01DX009 (ip), vehicle: saline) 115 % of control; (dose: 26.25 mg/kg/injection, schedule: Q04DX003 (ip), vehicle: saline) 108 % of control; (dose: 35.0 mg/kg/injection, schedule: Q01DX009 (ip), vehicle: saline) 105 % of control; (dose: 52.5 mg/kg/injection, schedule: Q04DX003 (ip), vehicle: saline) 104 % of control.
As for `COC(=O)c1cc(Cl)ccc1OCC(=O)NCc1ccc(Cl)cc1`, the T/C is 100 % of control (dose: 100.0 mg/kg/injection, schedule: Q01DX001 (ip), vehicle: saline with Tween-80); 95 % of control (dose: 200.0 mg/kg/injection, schedule: Q01DX001 (ip), vehicle: saline with Tween-80); 90 % of control (dose: 400.0 mg/kg/injection, schedule: Q01DX001 (ip), vehicle: saline with Tween-80).
For the compound `Clc1ccc(N=Cc2ccccc2)cc1`, the T/C is, setting by setting: (dose: 100.0 mg/kg/injection, schedule: Q01DX009 (ip), vehicle: Klucel (hydroxypropylcellulose) (HPC)) 90 % of control; under setting [4], 108 % of control; (dose: 200.0 mg/kg/injection, schedule: Q01DX009 (ip), vehicle: Klucel (hydroxypropylcellulose) (HPC)) 90 % of control; under setting [5], 95 % of control; under setting [6], 100 % of control.
Take `COCOS(C)(=O)=O`: the T/C was 95 % of control under setting [7] and 120 % of control under setting [8].
`Cc1[nH]nc(C(N)=O)c1N=NN(C)C`: the T/C reads like this: (dose: 132.0 mg/kg/injection, schedule: Q04DX003 (ip), vehicle: saline with Tween-80) 182 % of control; under setting [9], 186 % of control; (dose: 300.0 mg/kg/injection, schedule: Q04DX003 (ip), vehicle: saline with Tween-80) 100 % of control.
Consider `CCC[CH2][Sn]1([CH2]CCC)[O]OC(c2ccc(C)cc2)[O]1` (stereo unspecified), for which the T/C runs as follows: (dose: 0.38 mg/kg/injection, schedule: Q01DX009 (ip), vehicle: saline with Tween-80) 114 % of control; (dose: 1.5 mg/kg/injection, schedule: Q01DX009 (ip), vehicle: saline with Tween-80) 117 % of control; (dose: 3.13 mg/kg/injection, schedule: Q01DX009 (ip), vehicle: saline with Tween-80) 123 % of control; (dose: 5.3 mg/kg/injection, schedule: Q01DX009 (ip), vehicle: saline with Tween-80) 86 % of control.
Turning to `CC[C@H](/C=C/[C@@H](C)[C@H]1CC[C@H]2[C@@H]3CC=C4C[C@@H](OC(=O)/C=C\C(=O)O)CC[C@]4(C)[C@H]3CC[C@]12C)C(C)C`, the T/C is, setting by setting: (dose: 6.25 mg/kg/injection, schedule: Q01DX009 (ip), vehicle: other) 120 % of control; (dose: 12.5 mg/kg/injection, schedule: Q01DX009 (ip), vehicle: other) 105 % of control; (dose: 18.75 mg/kg/injection, schedule: Q04DX003 (ip), vehicle: other) 100 % of control; (dose: 25.0 mg/kg/injection, schedule: Q01DX009 (ip), vehicle: other) 100 % of control; (dose: 37.5 mg/kg/injection, schedule: Q04DX003 (ip), vehicle: other) 95 % of control; (dose: 75.0 mg/kg/injection, schedule: Q04DX003 (ip), vehicle: other) 104 % of control.
With `COc1ccc(NC(=O)Oc2ccc(-c3ccccc3)cc2Br)cc1`, the T/C under setting [4] was 91 % of control, the T/C under setting [5] was 95 % of control and the T/C under setting [6] is 91 % of control.
`CC(C)(S)C(N)C(=O)O` (stereo unspecified): the T/C reads like this: (dose: 50.0 mg/kg/injection, schedule: Q01DX009 (ip), vehicle: saline) 86 % of control; under setting [10], 90 % of control; under setting [7], 91 % of control; under setting [11], 90 % of control; under setting [8], 91 % of control; under setting [12], 100 % of control.
For `CC(=O)Nc1ccc(S(=O)(=O)c2ccc([N+](=O)[O-])cc2)cc1`, the T/C is 101 % of control (dose: 50.0 mg/kg/injection, schedule: Q04DX003 (ip), vehicle: saline with Tween-80); 106 % of control (dose: 100.0 mg/kg/injection, schedule: Q04DX003 (ip), vehicle: saline with Tween-80); 105 % of control under setting [9]; 99 % of control (dose: 400.0 mg/kg/injection, schedule: Q04DX003 (ip), vehicle: saline with Tween-80).
Take `C1=CC2CCC(C1)C21OCCO1` (stereo unspecified): the T/C was 90 % of control under setting [10]; 95 % of control under setting [7]; 109 % of control under setting [11]; 104 % of control under setting [8]; 109 % of control (dose: 400.0 mg/kg/injection, schedule: Q01DX009 (ip), vehicle: saline); 108 % of control under setting [12].
As for `O=c1nc(Oc2ccccc2)nc2c3ccccc3ccn12`, the T/C reads like this: (dose: 12.5 mg/kg/injection, schedule: Q01DX009 (ip), vehicle: saline with Tween-80) 118 % of control; (dose: 25.0 mg/kg/injection, schedule: Q01DX009 (ip), vehicle: saline with Tween-80) 102 % of control; under setting [1], 112 % of control; under setting [2], 114 % of control and 119 % of control; under setting [3], 89 % of control.

The values are drawn from PubChem BioAssay AID328 (DTP/NCI, 2004).
